The text below walks through data of paper PMC10303363, “Synthesis and Preclinical Evaluation of Novel ^68Ga-Labeled (R)-Pyrrolidin-2-yl-boronic Acid-Based PET Tracers for Fibroblast Activation Protein-Targeted Cancer Imaging” (Pharmaceuticals, 2023).

One data set deals with tumor. Further details: method as in doi:10.1158/1538-7445.AM2022-3303. The conditions noted are these: up to 168 h pi; cited from earlier work.
Data set [1] concerns HEK-mFAP murine tumor model. Further details: method as in doi:10.1158/1538-7445.AM2022-3303. The conditions noted are these: single dose; cited from earlier work.
Another data set concerns bone and muscle. Further details: method as in PMID 30850501, PMID 32332144, PMID 33721173, PMID 23712432, PMID 34620730. Conditions: mice; cited from earlier work.
The subject of data set [2] is FAP-positive SK-Mel-187 melanoma xenograft. Further details: method as in PMID 25633335. The conditions noted are these: in vitro; cited from earlier work.
Data set [3] has as its system FAP. Put plainly: FAP inhibition reported by Jansen et al. (literature). Conditions: from literature IC50 values. It counts as biochemical.
A further data set deals with PREP. The conditions noted are these: cited from earlier work.
In data set [4] the test system is FAP. Conditions: cited from earlier work.
In a further data set the test system is DPPs. Conditions: cited from earlier work.

The IC50 is the point on the concentration scale where inhibition reaches its midpoint.

As to `CC(NC(=O)c1ccc(CNC(=O)CN2CCN(CC(=O)[O-])CCN(CC(=O)[O-])CCN(CC(=O)[O-])CC2)cc1)C(=O)N1CCCC1B(O)O.[177Lu+3]` (centres unmarked) [[^177Lu]Lu-PNT6555], the tumor retention in the data set with tumor is more than 10 %ID/g. The anti-tumor efficacy result in data set [1] is “dose-dependent anti-tumor efficacy”.

On to `N#C[C@@H]1CC(F)(F)CN1C(=O)CNC(=O)c1ccnc2ccc(OCCCN3CCN(C(=O)CN4CCN(CC(=O)[O-])CCN(CC(=O)[O-])CCN(CC(=O)[O-])CC4)CC3)cc12.[68Ga+3]` [[^68Ga]Ga-FAPI-04], for which the “uptake in the bone and muscle” value with bone and muscle is “high uptake”.

In the case of `O=C(NCC(=O)N1CCC[C@H]1B(O)O)c1ccc([125I])cc1` [[^125I]MIP-1232], in data set [2], the “accumulation in FAP-positive SK-Mel-187 melanoma xenograft” value is recorded as “strongly accumulate”.

Take `O=C(NCC(=O)N1CCC[C@H]1B(O)O)c1ccnc2ccccc12` [N-(4-quinolinoyl)-Gly-boroPro]: the “fold higher FAP binding affinity than N-(4-quinolinoyl)-Gly-(2-cyanopyrrolidine)” value in the data set with FAP [3] was 2.8 fold. In addition, the “selectivity over PREP” value in the data set with PREP is on record as ~ 3 fold. For the same molecule, the half-maximal inhibitory concentration (IC50) in the data set with FAP [4] is 3.7 ± 0.2 nM. Also, the “selectivity over DPPs” value in the data set with DPPs is recorded as > 10^3.
